{"source": "patent US8460906B2", "about": "“Immobilized product tolerant microorganisms” (Cobalt Technologies, Inc., priority 2008, dated 2013)", "key": {"[1]": {"system": "Clostridium saccharobutylicum strain Co-7449", "details": "for highest butanol concentration of plates showing growth: solid media P2+4% Xylose", "procedure": "(§1) In some embodiments, solvent tolerant microorganisms are mutagenized and selected for increased solvent tolerance on solid support. In some embodiments, solvent tolerant mutants can be used for either solvent or organic acid production. […] In some embodiments of the present invention, solvent tolerance is a relative value that is measured by comparing the growth ability of a mutant microorganism on a semi-solid or solid support to the growth ability of the non-mutant parent microorganism on the same semi-solid or solid support. Typically, the semi-solid or solid support comprises a growth media and a specified concentration of a solvent that is usually measured on a volume to volume (v/v) basis. Generally, multiple containers, usually petri dishes, are filled with semi-solid or solid support representing a range of solvent concentration. […] The highest concentration at which colonies still form represents the solvent tolerance of the microorganism. An alternative solvent tolerance test method is to overlay the non-solvent support with a solution containing a specified concentration of a solvent.\n(§2) On the first day, a seed train of a strain to be investigated was started in 5 ml cultures of P2+4% Xylose in the anaerobic hood. A 1-L volume of sterile P2 medium containing 4% Xylose and agar was prepared and place on hot plate. […] The solution was mixed well and plates were poured in a sterile environment. After the plates were solidified, they were transferred to the anaerobic hood and parafilmed immediately prior to storage overnight.\n(§3) The next day, the OD600 of the seed train tubes was measured. […] Control tubes without inoculum were also prepared. Tubes were incubated in an anaerobic hood.\n(§4) After 1 day and 3-4 days, the OD600 of liquid cultures was measured. Plates were examined for growth. […] OD600 at start (0 hr) was based on a 1:20 inoculation of the starter cultures."}, "[2]": {"system": "mutants of C. saccharobutylicum strain Co-7449", "procedure": "as §1\nClostridium saccharobutylicum strain Co-7449 was grown in yeast extract medium (YEM) to an approximate OD600 of 3 and was treated with a final concentration of 50 μg/ml N-methyl-N′-nitro-N-nitrosoguanidine (MNNG) for 15 minutes. Cells were twice washed with glucose-free YEM and plated on Reinforced Clostridium Medium (RCM) at 10^−3 and 10^−4 dilution to recover 3000-4000 colonies."}, "Co-0124 [3]": {"system": "Co-0124", "details": "solid media P2+4% Xylose", "procedure": "as §2, §3, §4"}, "Co-5673 [4]": {"system": "Co-5673", "details": "solid media P2+4% Xylose", "procedure": "as §2, §3, §4"}, "Co-0124 [5]": {"system": "Co-0124", "details": "liquid P2+4% Xylose, 24 and 96 hr time points", "procedure": "as §3, §4"}, "Co-5673 [6]": {"system": "Co-5673", "details": "liquid P2+4% Xylose, 24 and 96 hr time points", "procedure": "as §3, §4"}, "Co-7449": {"system": "Co-7449", "details": "liquid P2+4% Xylose, 24 and 96 hr time points", "procedure": "as §3, §4"}, "[7]": {"system": "environmental sample (isolate)", "procedure": "An environmental sample (isolate) is obtained. The isolate is plated on a set of identical plates containing a nutrient agar."}, "[8]": {"system": "mutants of C. saccharobutylicum strain Co-7449", "details": "suspension culture, colonies from 5% butanol RCM plates"}}, "note": "Where two headings read alike, the source gives them in different places.", "data": [{"substance": "butanol", "values": [{"measurement": "butanol tolerance result on solid media", "setting": "[1]; 24 hr, separate experiment", "value": 2.1, "unit": "%"}, {"measurement": "highest butanol concentration of plates showing growth", "setting": "[1]; 24 hour", "value": 0, "unit": "%"}, {"measurement": "highest butanol concentration of plates showing growth", "setting": "[1]; 96 hour", "value": 2.2, "unit": "%"}, {"measurement": "tolerance for butanol compared to the parent Co-7449 strain", "setting": "[2]; mutants grown on a solid support", "value": "at least a two-fold higher tolerance"}, {"measurement": "growth on 5% butanol plates after culture in YEM without butanol", "setting": "[2]; samples removed from liquid YEM, plated on 5% butanol plates", "value": "failed to grow"}, {"measurement": "relative solvent tolerance of the mutants versus non-mutant parent strain", "setting": "[2]; {}", "value": "at least 225%"}, {"measurement": "highest butanol concentration of plates showing growth", "setting": "Co-0124 [3]; 24 hour", "value": 2.2, "unit": "%"}, {"measurement": "highest butanol concentration of plates showing growth", "setting": "Co-0124 [3]; 96 hour", "value": 2.3, "unit": "%"}, {"measurement": "highest butanol concentration of plates showing growth", "setting": "Co-5673 [4]; 24 hour", "value": 2.2, "unit": "%"}, {"measurement": "highest butanol concentration of plates showing growth", "setting": "Co-5673 [4]; 96 hour", "value": 2.2, "unit": "%"}, {"measurement": "highest butanol concentration at which OD600 increased", "setting": "Co-0124 [5]", "value": "1.6 % (v/v)"}, {"measurement": "highest butanol concentration at which OD600 increased", "setting": "Co-5673 [6]", "value": "1.4 % (v/v)"}, {"measurement": "highest butanol concentration at which OD600 increased", "setting": "Co-7449", "value": "1.4 % (v/v)"}, {"measurement": "butanol concentration the adapted strain grows in", "setting": "[7]; after 20 passages on solid support with increasing butanol", "value": 2.5, "unit": "%"}, {"measurement": "highest butanol concentration of plates with colonies", "setting": "[7]; unadapted isolate, no growth at 1.8% or 2.0%", "value": 1.6, "unit": "%"}, {"measurement": "growth in YEM with 1.2% butanol added to the broth", "setting": "[8]", "value": "did not grow"}]}]}
